Test results: PMC11233931, “Remodeling tumor‐associated macrophage for anti‐cancer effects by rational design of irreversible inhibition of mitogen‐activated protein kinase‐activated protein kinase 2” (MedComm, 2024)

Legend:
Experiment in all cases: Eurofins kinase selectivity profile against 380 other human recombinant kinases (Table S2)
Type in all cases: biochemical
[1] = target: T1, 380 human recombinant protein kinases (Homo sapiens, UniProt Q16566); conditions: CaMKIV(h), read-out: Inhibition rate
T1 construct: purchased Eurofins (Celle Lévescault)
T1 sequence (Q16566 1-473): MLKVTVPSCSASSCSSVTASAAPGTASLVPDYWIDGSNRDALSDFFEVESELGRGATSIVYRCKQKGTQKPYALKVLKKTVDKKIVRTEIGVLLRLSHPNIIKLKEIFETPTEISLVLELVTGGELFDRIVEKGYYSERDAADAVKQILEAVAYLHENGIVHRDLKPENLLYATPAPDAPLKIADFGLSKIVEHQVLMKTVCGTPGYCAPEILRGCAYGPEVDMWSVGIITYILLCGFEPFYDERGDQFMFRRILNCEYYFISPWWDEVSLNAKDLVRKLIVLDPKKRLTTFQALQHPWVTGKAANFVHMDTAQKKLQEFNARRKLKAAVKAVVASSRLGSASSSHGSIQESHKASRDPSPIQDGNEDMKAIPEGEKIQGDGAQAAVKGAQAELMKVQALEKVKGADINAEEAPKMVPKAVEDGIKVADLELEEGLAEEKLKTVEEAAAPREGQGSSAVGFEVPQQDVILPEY
How it was run: (§1)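 Off-target profiling: one compound assayed by a commercial provider over 380 recombinant human protein kinases at various concentrations.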

[2] = target: T2, 380 human recombinant protein kinases (Homo sapiens, UniProt P00533); conditions: EGFR(h), read-out: Inhibition rate
T2 construct: purchased Eurofins (Celle Lévescault)
T2 sequence (P00533 25-1210): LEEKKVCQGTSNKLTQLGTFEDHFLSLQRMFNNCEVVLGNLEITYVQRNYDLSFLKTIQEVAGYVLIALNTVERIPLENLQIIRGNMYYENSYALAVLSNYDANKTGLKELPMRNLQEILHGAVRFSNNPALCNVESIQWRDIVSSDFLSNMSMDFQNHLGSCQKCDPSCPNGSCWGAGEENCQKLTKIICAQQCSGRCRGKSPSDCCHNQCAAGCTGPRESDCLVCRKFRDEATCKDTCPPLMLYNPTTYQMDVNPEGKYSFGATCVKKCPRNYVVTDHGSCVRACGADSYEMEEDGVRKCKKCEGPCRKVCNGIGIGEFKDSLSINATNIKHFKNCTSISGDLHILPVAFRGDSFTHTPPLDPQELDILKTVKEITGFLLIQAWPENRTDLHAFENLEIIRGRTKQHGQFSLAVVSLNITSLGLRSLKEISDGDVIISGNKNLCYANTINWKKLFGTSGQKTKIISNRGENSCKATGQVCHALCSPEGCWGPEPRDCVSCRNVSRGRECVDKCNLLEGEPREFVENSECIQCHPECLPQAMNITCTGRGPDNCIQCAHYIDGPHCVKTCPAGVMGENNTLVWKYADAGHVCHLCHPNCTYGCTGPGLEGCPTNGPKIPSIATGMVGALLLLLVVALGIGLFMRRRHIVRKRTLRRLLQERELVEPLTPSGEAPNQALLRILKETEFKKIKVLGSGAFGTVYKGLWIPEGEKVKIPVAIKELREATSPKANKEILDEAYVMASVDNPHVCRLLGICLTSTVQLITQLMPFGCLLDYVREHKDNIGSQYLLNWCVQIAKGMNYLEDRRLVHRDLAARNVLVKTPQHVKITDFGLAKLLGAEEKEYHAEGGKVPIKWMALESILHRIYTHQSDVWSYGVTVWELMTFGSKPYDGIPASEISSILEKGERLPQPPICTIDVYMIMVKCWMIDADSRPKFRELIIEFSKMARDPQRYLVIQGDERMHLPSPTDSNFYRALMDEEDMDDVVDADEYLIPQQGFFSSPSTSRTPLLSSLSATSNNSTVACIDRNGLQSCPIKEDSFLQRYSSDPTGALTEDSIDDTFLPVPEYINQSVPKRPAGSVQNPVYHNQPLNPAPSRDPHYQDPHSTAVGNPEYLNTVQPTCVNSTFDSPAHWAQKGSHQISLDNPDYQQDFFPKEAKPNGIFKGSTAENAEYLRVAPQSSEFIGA
How it was run: as §1

[3] = target: T3, 380 human recombinant protein kinases (Homo sapiens, UniProt P11362); conditions: FGFR1(h), read-out: Inhibition rate
T3 construct: purchased Eurofins (Celle Lévescault)
T3 sequence (P11362 22-822): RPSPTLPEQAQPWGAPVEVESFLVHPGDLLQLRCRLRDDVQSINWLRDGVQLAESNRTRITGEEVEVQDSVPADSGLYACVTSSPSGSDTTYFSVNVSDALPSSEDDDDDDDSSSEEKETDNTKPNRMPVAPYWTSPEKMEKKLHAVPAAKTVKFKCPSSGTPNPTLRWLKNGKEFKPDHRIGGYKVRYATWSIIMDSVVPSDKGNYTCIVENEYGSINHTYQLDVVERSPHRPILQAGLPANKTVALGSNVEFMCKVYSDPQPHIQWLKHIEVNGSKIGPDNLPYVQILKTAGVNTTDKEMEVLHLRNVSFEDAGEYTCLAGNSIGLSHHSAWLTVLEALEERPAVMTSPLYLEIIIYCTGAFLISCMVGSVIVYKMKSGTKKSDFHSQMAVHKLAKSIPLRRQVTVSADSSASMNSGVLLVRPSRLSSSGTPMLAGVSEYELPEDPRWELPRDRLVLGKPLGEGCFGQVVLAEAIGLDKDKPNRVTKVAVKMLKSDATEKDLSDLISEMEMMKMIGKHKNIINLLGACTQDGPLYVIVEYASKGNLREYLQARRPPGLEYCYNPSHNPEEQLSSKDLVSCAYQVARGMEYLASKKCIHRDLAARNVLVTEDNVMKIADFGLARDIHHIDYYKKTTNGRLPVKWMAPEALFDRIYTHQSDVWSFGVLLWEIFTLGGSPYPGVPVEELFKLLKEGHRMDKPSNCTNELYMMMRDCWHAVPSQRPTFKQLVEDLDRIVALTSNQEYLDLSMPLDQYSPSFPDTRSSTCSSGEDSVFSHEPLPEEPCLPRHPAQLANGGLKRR
How it was run: as §1

[4] = target: T4, 380 human recombinant protein kinases (Homo sapiens, UniProt P11309); conditions: Pim-1(h), read-out: Inhibition rate
T4 construct: purchased Eurofins (Celle Lévescault)
T4 sequence (P11309 whole entry): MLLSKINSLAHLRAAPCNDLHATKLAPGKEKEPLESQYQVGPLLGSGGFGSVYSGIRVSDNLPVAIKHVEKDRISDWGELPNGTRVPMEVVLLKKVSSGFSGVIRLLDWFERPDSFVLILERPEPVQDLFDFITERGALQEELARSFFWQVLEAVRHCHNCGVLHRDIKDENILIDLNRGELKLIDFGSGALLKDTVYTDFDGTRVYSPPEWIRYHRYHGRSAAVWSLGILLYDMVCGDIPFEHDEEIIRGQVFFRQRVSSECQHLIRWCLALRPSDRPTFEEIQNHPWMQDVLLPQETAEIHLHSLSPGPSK
How it was run: as §1

[5] = target: T5, 380 human recombinant protein kinases (Homo sapiens, UniProt Q8WTQ7); conditions: GRK7(h), read-out: Inhibition rate
T5 construct: purchased Eurofins (Celle Lévescault)
T5 sequence (Q8WTQ7 1-553): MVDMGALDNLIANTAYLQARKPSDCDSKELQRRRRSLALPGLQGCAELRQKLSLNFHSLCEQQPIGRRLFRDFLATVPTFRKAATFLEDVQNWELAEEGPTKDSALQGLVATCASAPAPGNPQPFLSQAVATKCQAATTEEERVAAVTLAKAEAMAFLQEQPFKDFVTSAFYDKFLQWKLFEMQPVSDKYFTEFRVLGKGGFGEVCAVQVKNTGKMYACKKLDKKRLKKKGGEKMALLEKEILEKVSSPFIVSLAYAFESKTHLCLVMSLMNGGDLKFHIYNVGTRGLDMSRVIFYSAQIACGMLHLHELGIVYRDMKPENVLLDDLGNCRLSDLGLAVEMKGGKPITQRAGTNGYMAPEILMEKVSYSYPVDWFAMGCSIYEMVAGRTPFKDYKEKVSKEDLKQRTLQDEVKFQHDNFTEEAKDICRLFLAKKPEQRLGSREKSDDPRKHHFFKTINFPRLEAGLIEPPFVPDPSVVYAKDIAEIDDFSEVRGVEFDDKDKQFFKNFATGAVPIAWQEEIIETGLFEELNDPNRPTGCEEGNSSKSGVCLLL
How it was run: as §1

[6] = target: T6, 380 human recombinant protein kinases (Homo sapiens, UniProt P29322); conditions: EphA8(h), read-out: Inhibition rate
T6 construct: purchased Eurofins (Celle Lévescault)
T6 sequence (P29322 28-1005): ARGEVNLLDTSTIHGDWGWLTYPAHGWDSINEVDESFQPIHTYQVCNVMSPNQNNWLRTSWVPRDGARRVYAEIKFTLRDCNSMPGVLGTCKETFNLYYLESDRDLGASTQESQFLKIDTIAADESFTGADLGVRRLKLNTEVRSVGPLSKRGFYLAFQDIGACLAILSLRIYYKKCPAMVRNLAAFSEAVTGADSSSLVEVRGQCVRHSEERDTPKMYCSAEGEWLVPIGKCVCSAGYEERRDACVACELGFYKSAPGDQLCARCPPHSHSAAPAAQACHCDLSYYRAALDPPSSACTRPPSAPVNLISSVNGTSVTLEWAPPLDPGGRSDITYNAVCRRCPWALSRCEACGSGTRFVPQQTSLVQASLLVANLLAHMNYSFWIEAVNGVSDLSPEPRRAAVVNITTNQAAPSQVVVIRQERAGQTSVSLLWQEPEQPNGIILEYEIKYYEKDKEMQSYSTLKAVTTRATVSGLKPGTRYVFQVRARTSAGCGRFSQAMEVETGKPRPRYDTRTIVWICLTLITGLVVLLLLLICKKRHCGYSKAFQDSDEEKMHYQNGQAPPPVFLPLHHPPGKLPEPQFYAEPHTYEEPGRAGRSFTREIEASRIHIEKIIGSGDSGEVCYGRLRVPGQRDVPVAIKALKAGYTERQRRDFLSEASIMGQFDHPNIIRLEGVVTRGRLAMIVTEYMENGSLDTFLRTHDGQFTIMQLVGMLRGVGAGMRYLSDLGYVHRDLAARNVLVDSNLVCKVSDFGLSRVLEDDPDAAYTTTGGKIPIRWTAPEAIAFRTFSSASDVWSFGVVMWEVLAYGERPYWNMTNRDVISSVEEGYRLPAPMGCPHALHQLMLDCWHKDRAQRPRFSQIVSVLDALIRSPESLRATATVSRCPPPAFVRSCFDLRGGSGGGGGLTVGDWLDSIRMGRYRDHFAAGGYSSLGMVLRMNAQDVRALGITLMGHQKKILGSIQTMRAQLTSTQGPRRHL
How it was run: as §1

[7] = target: T7, 380 human recombinant protein kinases (Homo sapiens, UniProt P50750); conditions: CDK9/cyclin T1(h), read-out: Inhibition rate
T7 construct: purchased Eurofins (Celle Lévescault)
T7 sequence (P50750 whole entry): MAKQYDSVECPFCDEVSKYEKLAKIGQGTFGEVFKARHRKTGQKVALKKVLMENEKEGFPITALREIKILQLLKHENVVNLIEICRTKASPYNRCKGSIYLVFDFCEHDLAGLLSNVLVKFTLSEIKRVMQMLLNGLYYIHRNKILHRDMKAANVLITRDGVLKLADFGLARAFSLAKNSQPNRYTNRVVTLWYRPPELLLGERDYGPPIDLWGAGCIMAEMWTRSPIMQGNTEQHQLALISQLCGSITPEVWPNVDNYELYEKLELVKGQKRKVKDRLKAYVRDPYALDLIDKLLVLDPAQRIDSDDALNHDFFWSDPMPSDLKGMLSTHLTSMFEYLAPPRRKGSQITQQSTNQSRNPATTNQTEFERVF
How it was run: as §1

## C=CC(=O)Nc1cc(-c2cc(-c3cc4c([nH]3)CCNC4=O)ccn2)ccc1OC(F)(F)F [compound 11]
[1]; 10 nM
  inhibition at 0.01 µM: 9%
[1]; 100 nM
  inhibition at 0.1 µM: 8%
[1]; 1000 nM
  inhibition at 1 µM: 6%
[2]; 10 nM
  inhibition at 0.01 µM: 3%
[2]; 100 nM
  inhibition at 0.1 µM: -20%
[2]; 1000 nM
  inhibition at 1 µM: -6%
[3]; 10 nM
  inhibition at 0.01 µM: -2%
[3]; 100 nM
  inhibition at 0.1 µM: 6%
[3]; 1000 nM
  inhibition at 1 µM: 7%
[4]; 10 nM
  inhibition at 0.01 µM: -12%
[4]; 100 nM
  inhibition at 0.1 µM: 12%
[4]; 1000 nM
  inhibition at 1 µM: 41%
[5]; 10 nM
  inhibition at 0.01 µM: -4%
[5]; 100 nM
  inhibition at 0.1 µM: -6%
[5]; 1000 nM
  inhibition at 1 µM: 2%
[6]; 10 nM
  inhibition at 0.01 µM: 1%
[6]; 100 nM
  inhibition at 0.1 µM: 2%
[6]; 1000 nM
  inhibition at 1 µM: 1%
[7]; 10 nM
  inhibition at 0.01 µM: 8%
[7]; 100 nM
  inhibition at 0.1 µM: 2%
[7]; 1000 nM
  inhibition at 1 µM: 6%
